From patent publication EP4268823A1, “COMPOUND FOR TREATING NEUROINFLAMMATION” (Universitätsklinikum Hamburg-Eppendorf, priority 2022, dated 2023)

Tests used:
[1] = tested on: primary neuronal cultures; experiment: Cytosolic calcium imaging of H2O2-exposed neuronal cultures; assay type: cell-based, mouse; conditions: acute hydrogen peroxide stimulation, UNC0642 vs. DMSO
Protocol: For primary cortical cultures pregnant C57BL/6J, or G9afl/fl;Snap25-Cre mice were euthanized. To ensure comparability between genotypes, only embryos from heterozygous breeding's were used. Brainstem tissue of each embryo for genotyping was reserved and cortices were isolated, dissociated and cells were plated at a density of 1 × 10^5 cells per 1 cm^2 on poly-D-lysine-coated wells (5 µM Sigma-Aldrich, cat. no. A-003-M). If not stated otherwise, cells were maintained in neurobasal plus medium (supplemented with B27 plus, penicillin, streptomycin and L-glutamine; Gibco, cat. no. A3582901) at 37°C, 5% CO^2 and a relative humidity of 98%, and treated with 1 µM cytarabine (Sigma-Aldrich, cat. no. BP383) at 1 day in vitro (div) to inhibit glial cell proliferation. If no cytarabine was applied cells were maintained in PNBM medium (supplemented with neural cell survival factor, gentamycin and L-glutamine; Lonza). […]
Primary neuronal cultures were seeded on Ibidi 60 µ-Dish Quad (cat. No. 80411) plates. […] Before applying the indicated chemicals, 5-10 min of baseline activity was first recorded. […] For data analysis, mean fluorescence values of every cell were measured using Fiji software (NIH) and normalized to the maximal calcium response after ionomycin challenge. For each cell, mean AUC of the calcium response was calculated using a custom R script.

[2] = tested on: primary neuronal cultures; experiment: Oxidative stress detection with CellROX green reagent after glutamate; assay type: cell-based, mouse; conditions: 20 µM glutamate 1 hour, UNC0642 pre-treatment
Protocol: (§1) For primary cortical cultures pregnant C57BL/6J, or G9afl/fl;Snap25-Cre mice were euthanized. To ensure comparability between genotypes, only embryos from heterozygous breeding's were used. Brainstem tissue of each embryo for genotyping was reserved and cortices were isolated, dissociated and cells were plated at a density of 1 × 10^5 cells per 1 cm^2 on poly-D-lysine-coated wells (5 µM Sigma-Aldrich, cat. no. A-003-M). If not stated otherwise, cells were maintained in neurobasal plus medium (supplemented with B27 plus, penicillin, streptomycin and L-glutamine; Gibco, cat. no. A3582901) at 37°C, 5% CO^2 and a relative humidity of 98%, and treated with 1 µM cytarabine (Sigma-Aldrich, cat. no. BP383) at 1 day in vitro (div) to inhibit glial cell proliferation. If no cytarabine was applied cells were maintained in PNBM medium (supplemented with neural cell survival factor, gentamycin and L-glutamine; Lonza). Throughout, cultures after 14-23 div were used for experiments. G9a inhibitor UNC0642 was used in a concentration of 1 µM and cultures were pre-treated 24 hours before further experimental procedures.
For the detection of oxidative stress in response to glutamate treatment, CellROX green reagent (Thermofisher) was used. […] Immunofluorescence of nuclear CellROX dye was quantified using Fiji (ImageJ).

G9a = target: T1, G9a (Mus musculus, UniProt Q9Z148); experiment: H3K9me2 / G9a immunofluorescence staining in primary neuronal cultures; assay type: cell-based
T1 construct: UNC0642 pre-treated primary neuronal cultures compared to respective controls; endogenous in cells; host or cells: primary mouse cortical neuronal cultures (C57BL/6J embryos)
T1 sequence (Q9Z148 1-1263): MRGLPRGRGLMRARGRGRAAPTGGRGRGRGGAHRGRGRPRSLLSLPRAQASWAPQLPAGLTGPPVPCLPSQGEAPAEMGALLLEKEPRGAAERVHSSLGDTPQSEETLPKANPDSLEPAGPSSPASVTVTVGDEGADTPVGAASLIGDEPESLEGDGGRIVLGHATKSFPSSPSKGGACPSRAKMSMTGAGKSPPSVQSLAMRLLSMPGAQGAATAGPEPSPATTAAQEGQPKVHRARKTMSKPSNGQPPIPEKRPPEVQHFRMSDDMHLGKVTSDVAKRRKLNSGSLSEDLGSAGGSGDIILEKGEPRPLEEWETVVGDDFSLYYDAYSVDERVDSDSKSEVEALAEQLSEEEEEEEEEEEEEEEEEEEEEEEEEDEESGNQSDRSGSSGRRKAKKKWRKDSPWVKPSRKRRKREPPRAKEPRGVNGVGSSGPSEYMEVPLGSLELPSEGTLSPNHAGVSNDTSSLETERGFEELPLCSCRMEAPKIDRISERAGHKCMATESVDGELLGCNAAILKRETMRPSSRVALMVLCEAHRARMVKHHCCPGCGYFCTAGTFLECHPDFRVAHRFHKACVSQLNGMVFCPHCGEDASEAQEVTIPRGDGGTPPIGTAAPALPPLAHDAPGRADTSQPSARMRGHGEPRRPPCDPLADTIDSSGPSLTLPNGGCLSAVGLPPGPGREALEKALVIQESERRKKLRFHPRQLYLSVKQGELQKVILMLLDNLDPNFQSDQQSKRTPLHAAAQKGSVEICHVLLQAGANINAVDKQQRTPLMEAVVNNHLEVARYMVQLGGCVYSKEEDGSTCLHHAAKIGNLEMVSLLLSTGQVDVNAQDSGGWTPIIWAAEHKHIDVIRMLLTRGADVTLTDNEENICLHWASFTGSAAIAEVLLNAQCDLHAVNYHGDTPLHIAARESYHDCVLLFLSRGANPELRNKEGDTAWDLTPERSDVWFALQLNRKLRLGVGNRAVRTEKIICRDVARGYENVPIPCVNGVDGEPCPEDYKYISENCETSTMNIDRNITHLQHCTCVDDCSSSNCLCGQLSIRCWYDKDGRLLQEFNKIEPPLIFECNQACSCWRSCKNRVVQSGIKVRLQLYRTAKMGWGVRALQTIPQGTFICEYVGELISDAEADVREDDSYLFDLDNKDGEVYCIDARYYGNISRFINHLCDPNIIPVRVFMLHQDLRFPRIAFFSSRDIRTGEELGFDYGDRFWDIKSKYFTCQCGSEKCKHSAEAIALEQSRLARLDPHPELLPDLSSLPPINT
Protocol: as §1
Immunocytochemistry was performed as described previously (15). HiPSC-neurons and mouse neurons were cultivated on 12 mm diameter cover slips or on 96-well plates suited for confocal microscopy, fixed with 4% paraformaldehyde (PFA), incubated in 10% normal donkey's serum (NDS) containing 0.25% Triton X-100, and subsequently immunolabeling was performed. Immunostainings were analyzed with a Zeiss LSM 700 confocal microscope.

EAE mice = experiment: Experimental autoimmune encephalomyelitis (EAE): clinical score and spinal cord histopathology
[3] = tested on: primary neuronal cultures; experiment: Cytosolic calcium imaging of glutamate-exposed neuronal cultures; assay type: cell-based, mouse; conditions: UNC0642 pre-treatment plus ferroptosis inhibitor (ferrostatin-1)
Protocol: as §1
Primary neuronal cultures were seeded on Ibidi 60 µ-Dish Quad (cat. No. 80411) plates. Cultures were infected with an AAV7 containing pAAV-Syn-GCamp6f-WPRE-SV40 (86) (Addgene 100837) at 7-10 div with a 20,000-fold multiplicity of infection (MOI). AAV particles were produced according to the standard procedures of the UKE vector facility. Images were acquired with a confocal LSM 700 laser scanning confocal microscope (Zeiss) every 0.48 seconds with a 20× magnification in an imaging chamber maintaining 37 °C and 5% CO2. Infected cultures were imaged in the respective culture medium. Before applying the indicated chemicals, 5-10 min of baseline activity was first recorded. At the end of the recording, 8 µM ionomycin was applied to induce the maximum cellular calcium response that was used for normalization. For data analysis, mean fluorescence values of every cell were measured using Fiji software (NIH) and normalized to the maximal calcium response after ionomycin challenge. For each cell, mean AUC of the calcium response was calculated using a custom R script.

[4] = primary neuronal cultures, 1 µM UNC0642 pre-treated 24 hours, vs. DMSO

In the case of `COc1cc2c(NC3CCN(C(C)C)CC3)nc(N3CCC(F)(F)CC3)nc2cc1OCCCN1CCCC1` [UNC0642, 2-(4,4-difluoropiperidin-1-yl)-6-methoxy-N-[1-(propan-2-yl)piperidin-4-yl]-7-[3-(pyrrolidin-1-yl)propoxy]quinazolin-4-amine], the “hydrogen peroxide-induced calcium overload” value [1] is reported as “rescued hydrogen peroxide-induced calcium overload”, the “generation of ROS (CellROX green)” value [2] is reported as “reduced the generation of ROS close to baseline levels” and the “upregulation of H3K9me2 in response to ferroptosis induction” value (G9a; erastin or RSL3, with UNC0642) is reported as “effectively prevented”. The “upregulation of H3K9me2 by hydrogen peroxide treatment” value (G9a; hydrogen peroxide stimulation, UNC0642 treatment) was “still able to overcome this effect”, the G9a protein level (G9a; [4]) was “did not change” and the “reduction of H3K9me2 signal” value (G9a; [4]) was 45%. The EAE disease course (EAE mice; 5 mg kg-1 body weight once daily intraperitoneally from symptom onset, vs. vehicle) was “significantly ameliorated EAE disease course”, the body weight changes (EAE mice; EAE, 5 mg kg-1 UNC0642) was “not altered” and the immune cell infiltration (EAE mice; EAE, 5 mg kg-1 UNC0642) was “not altered”. For the same molecule, the microglia activation (EAE mice; EAE, 5 mg kg-1 UNC0642) was “not altered”, the “4-hydroxy-2-nonenal (4-HNE) levels” value (EAE mice; cervical spinal cord sections, chronic EAE, 5 mg kg-1 UNC0642 vs. vehicle) was “significantly reduced” and the “neuronal loss in the spinal cord ventral horn” value (EAE mice; chronic EAE, day 30, 5 mg kg-1 UNC0642) was “reduced neuronal loss”. The “potentiation of rescue effects of ferroptosis inhibition on glutamate-induced calcium overload” value [3] was “did not further potentiate the rescue effects of ferroptosis inhibition”.
